# Reference: patent US20030229451A1, “Methods and systems for analyzing complex biological systems” (priority 2001, published 2003)
# Columns and labels:
# [1] = test system: Arabidopsis thaliana; experiment: MOA1 biochemical (metabolite) profiling by LC-MS and GC-MS
# [2] = test system: Arabidopsis thaliana; experiment: MOA1 gene expression profiling (22,000 gene array); conditions: for Regulated Genes: Down / Regulated Genes: Up: 1 hr, p < 0.5; for No. of Lethal Genes Altered: genes essential for plant growth and development
# [3] = test system: Arabidopsis thaliana plants; experiment: SOA1 phenotypic analysis of herbicide-treated Arabidopsis (MIC, Tmic, leaf traits); format: in vivo; conditions: for characteristic morphological symptoms: herbicide-treated Arabidopsis; for leafCurling Dev. / leafTwisting Dev. / leafWidth Dev. / matureLeafAnthocyanins Dev. / matureLeafChlorosis Dev. / matureLeafNecrosis Dev. / newLeafAnthocyanins Dev. / newLeafChlorosis Dev. / newLeafNecrosis Dev. / pointedLeaves Dev.: numeric value standardized to mock treated; for tMic Dev.: time to full range of symptoms at MIC, coded
# [4] = test system: Magnaporthe grisea; format: cell-based
# [5] = concentrations insufficient to inhibit growth
SMILES,"Number of Metabolites Changed: (unknown #) ([1]; 20 min, p < 0.05)","Number of Metabolites Changed: Total # ([1]; 20 min, p < 0.05)","Number of Metabolites Changed: (unknown #) ([1]; 20 min, p < 0.11)","Number of Metabolites Changed: Total # ([1]; 20 min, p < 0.11)","Number of Metabolites Changed: (unknown #) ([1]; 1 hr, p < 0.05)","Number of Metabolites Changed: Total # ([1]; 1 hr, p < 0.05)","Number of Metabolites Changed: (unknown #) ([1]; 1 hr, p < 0.11)","Number of Metabolites Changed: Total # ([1]; 1 hr, p < 0.11)",Regulated Genes: Down [2],Regulated Genes: Up [2],No. of Lethal Genes Altered [2],characteristic morphological symptoms [3],leafCurling Dev. [3],leafTwisting Dev. [3],leafWidth Dev. [3],matureLeafAnthocyanins Dev. [3],matureLeafChlorosis Dev. [3],matureLeafNecrosis Dev. [3],newLeafAnthocyanins Dev. [3],newLeafChlorosis Dev. [3],further results
COC(=O)NS(=O)(=O)c1ccc(N)cc1 [Asulam],3,9,5,14,7,10,11,18,7,80,5,–,–,–,–,–,–,–,–,–,–
COc1nc(C)nc(NC(=O)NS(=O)(=O)c2ccccc2Cl)n1 [Chlorsulfuron],4,9,6,15,3,5,13,23,109,97,8,anthocyanin accumulation in the older leaves accompanied by chlorosis of the newly emerging leaves,1,1,−1,3,2,0,0,2,newLeafNecrosis Dev. [3]: 0; pointedLeaves Dev. [3]: 0; tMic Dev. [3]: 2
CP(=O)(O)CCC(N)C(=O)O (stereo not shown) [Glufosinate],25,33,33,48,4 (4),4 (4),9 (9),9 (9),54,296,10,Chlorosis and leaf curling,2,1,−2,0,3,0,0,3,nitrogen source utilization by M. grisea ([4]; in the presence of compound): only able to utilize glutamine and glutamate as nitrogen sources; newLeafNecrosis Dev. [3]: 0; pointedLeaves Dev. [3]: 1; tMic Dev. [3]: 1
O=C(O)CNCP(=O)(O)O [Glyphosate],2,4,9,13,9,16,24,46,–,–,–,anthocyanin accumulation in the older leaves accompanied by chlorosis of the newly emerging leaves,0,0,0,3,1,3,1,2,growth results for Tiers 3 and 4 compared to Unknown 4 ([4]; 250 μg/ml): nearly identical; growth inhibition of M. grisea ([4]; 1.0 mg/ml): remediated by inclusion of aromatic amino acids; tyrosine level ([1]; relative to the control): decreased; newLeafNecrosis Dev. [3]: 0; pointedLeaves Dev. [3]: 1; tMic Dev. [3]: 2
CS(=O)(=O)c1cc(C(F)(F)F)ccc1C(=O)c1cnoc1C1CC1 [Isoxaflutole],29,45,39,62,13,14,21,25,370,143,15,–,–,–,–,–,–,–,–,–,"growth of M. grisea in minimal media [4, 5]: unaffected; growth of M. grisea in minimal plus tyrosine media [4, 5]: inhibited; phenylalanine level ([1]; relative to the control): up-regulated; tyrosine level ([1]; relative to the control): up-regulated; Alpha-tocopherol level ([1]; relative to the control, early time points): not significantly changed"
